Patent US20170119907A1, “Targeted Therapeutics” (MEDIVATION TECHNOLOGIES, INC., priority 2014, published 2017)

Key:
[1] = system: articular cartilage degeneration (MIA model); assay: Monosodium iodoacetate (MIA) model of articular cartilage degeneration, compound-incubated hMSCs; type: in vivo, Sprague Dawley rats; settings: rat MIA 3 mg intra-articular; 4×10^5 hMSCs incubated in 10 μM compound injected day 7; evaluated day 28; FIG. 7
Procedure: 6 to 8 week old Sprague Dawley rats were anesthetized with 3% sevofluorane and injected in both the right and left knee intra-articularly with MIA (monosodium iodoacetate, Sigma Cat No I2512) at a dose of 3 mg in a volume of 50 pt. MIA was dissolved in sterile saline (0.9%). hMSCs (Lonza, Cat No PT-2501) were cultured in complete MSCCM™ mesenchymal stem cell culture medium (Lonza, Cat No PT-3238).
Seven days after the injection of MIA, 2-10 million hMSCs were collected and incubated for 20 min in 500 μL of 10 μM Compound 20 in PBS or in PBS alone (untreated). Cells were washed with PBS and counted.
Rats were again anesthetized with 3% sevofluorane. 4×10^5 hMSCs incubated in PBS or in Compound 20 were injected intraarticularly through the patellar ligament. Untreated hMSC were injected into the left knee joint, and Compound 20-stained hMSCs were injected into the right knee joint.
Twenty eight days after the injection of MIA, rats were euthanized, and femoral condyles were extracted for macroscopic evaluation.

Raji cells = assay: Viability of Raji cells treated with compound (Example B2); type: cell-based; settings: concentrations of 20 μM or below, FIG. 3C
human MSCs [2] = assay: Human MSC viability, trypan blue staining; type: cell-based; settings: 30 min, concentrations 20 μM or lower, FIG. 3B
Procedure: Cell viability was measured by using trypan blue to stain dead cells. Cells (2×10^5) were incubated with various concentrations of Compound 4 for 30 min, and viable cells were counted and compared to the number of viable cells in an untreated sample. Values for treated cells were normalized to untreated cells.

human MSCs [3] = assay: Viability and proliferation of human MSCs in the presence of compound (Example B2); type: cell-based; settings: concentrations of 20 μM or below
[4] = system: partial thickness chondral defects in the medial femoral condyle; assay: Chondral defect model, retention of Compound 4-augmented MSCs (histological cell retention score); type: in vivo, sheep; settings: for Cell Retention (average score, n = 5): score 0-2
Procedure: The capacity of ovine MSCs derived from bone marrow and augmented with Compound 4 to bind to lesions in cartilage in vivo was evaluated in a chondral defect model.
Bone marrow aspirate was collected from fifteen healthy nave female sheep and processed in vitro to attain a population of mesenchymal stem cells (MSCs) for each sheep created by expansion of adherent cells. MSCs were frozen at passage 1 (P1).
Two circular partial thickness chondral defects were surgically created bilaterally in the medial femoral condyle of each sheep, thereby creating four defects per sheep. Once the medial femoral condyle was surgically exposed, two partial thickness circular defects were created in the cartilage of the anterior aspect, separated by 2-3 mm. Each defect was created by penetrating the cartilage with a 7 mm diameter biopsy punch to delineate the margins followed by removal of cartilage within the defect margin with a scalpel to a depth of approximately 0.5 mm-0.8 mm without penetrating the surface of the calcified cartilage. Within the same animal, each defect received one of four experimental treatments: • a. D1: Empty Control: defect left unfilled; • b. D2: Vehicle Control: cells incubated in PBS delivered to the defect; • c. D3: 100 μM Compound 4 incubated in defect followed by delivery of cells to the defect; and • d. D4: Cells were incubated with 10 μM Compound 4 for 30 min and together they were delivered to defect.
Sheep were divided into three groups of 5 sheep. One group was sacrificed on day 1 after surgery, the second group was sacrificed on day 7, and the third group was sacrificed on day 14 after surgery.
The complete intact joint was harvested and transported to the laboratory. The joint was exposed, and defects were scored macroscopically prior to separating out bone blocks containing the defects with a band saw. Defects were further trimmed and individually separated using a fine ISOMET® saw prior to fixation in 10% neutral buffered formalin. Tissue was further trimmed for histological processing, fixed, and decalcified for at least one week.
As each sample completed decalcification, it was transferred to 40% EtOH until all samples were decalcified and the last sample had been in 40% EtOH for at least 24 hours.
Following decalcification, specimens were prepared for histology staining with safranin-orange, fast green and haematoxylin-eosin.
Histological Assessment of Compound 4-Augmented Cell Retention
Histological slides were stained with Haematoxylin & Eosin and Safranin Orange for evaluation of cell retention and the early stages of cartilage repair. Cell retention was assessed using the following scoring system: […]

human MSCs [5] = assay: Binding to human MSCs (visual inspection of staining); type: cell-based; settings: 5 μM or 10 μM, 30 min; FIG. 4A
Procedure: Human MSCs were incubated without Compound 4 or with Compound 4 (5 μM or 10 μM) for 30 min and then washed twice with 1 mL PBS. Samples were visually inspected to determine staining

human MSCs [6] = assay: Binding to and staining of human MSCs; type: cell-based; settings: photomicrographs, FIG. 4A

Compound	Macroscopic evaluation of femoral condyle cartilage [1]	viability of Raji cells relative to untreated control Raji cells (Raji cells)	Effect on viability of human MSCs (human MSCs [2])	proliferation of human MSCs (human MSCs [3]; FIG. 3A)	viability of human MSCs relative to untreated human MSCs (human MSCs [3]; FIG. 3B)	Cell Retention (average score, n = 5) ([4]; D3: 100 μM incubated in defect followed by delivery of cells, Day 1)	Cell Retention (average score, n = 5) ([4]; D3: 100 μM incubated in defect followed by delivery of cells, Day 7)	Cell Retention (average score, n = 5) ([4]; D3: 100 μM incubated in defect followed by delivery of cells, Day 14)	Cell Retention (average score, n = 5) ([4]; D4: cells pre-incubated with 10 μM for 30 min, then delivered to defect, Day 1)	Cell Retention (average score, n = 5) ([4]; D4: cells pre-incubated with 10 μM for 30 min, then delivered to defect, Day 7)	Cell Retention (average score, n = 5) ([4]; D4: cells pre-incubated with 10 μM for 30 min, then delivered to defect, Day 14)	MSC retention (in words) ([4]; sheep chondral defect model, summary of Table B9)	Binding to human MSCs (visual staining) (human MSCs [5])	binding to and staining of human MSCs (human MSCs [6])
Cc1cc2nc3cc(C)c(NCCCCCCNC(=O)c4ccc(-c5ccc(C(=O)NCCCCCCNc6cc7c(cc6C)nc6cc(C)c(N)cc6[n+]7-c6ccccc6)cc5)cc4)cc3[n+](-c3ccccc3)c2cc1N.[Cl-].[Cl-] [Compound 20, (3-amino-7-{[6-({4-[4-({6-[(7-amino-5-chloranuide-2,8-dimethyl-5-phenyl-5λ^6,10-phenazin-5-ylium-3-yl)amino]hexyl}carbamoyl)phenyl]phenyl}formamido)hexyl]amino}-2,8-dimethyl-5-phenyl-5λ^6,10-phenazin-5-ylium-5-e)chloranuide]	an improvement in the cartilage and surrounding bone area	do not affect	–	–	–	–	–	–	–	–	–	–	–	–
Cc1cc2nc3cc(C)c(NCCCCCCCCNc4cc5c(cc4C)nc4cc(C)c(N)cc4[n+]5-c4ccccc4)cc3[n+](-c3ccccc3)c2cc1N.[Cl-].[Cl-] [Compound 4, 7,7′-(octane-1,8-diylbis(azanediyl))bis(3-amino-2,8-dimethyl-5-phenylphenazin-5-ium) chloride]	–	–	did not affect the viability	do not affect	do not affect	0.75	0.75	1.2	0.4	1.0	1.25	promotes MSC retention	binds human MSCs	binds to and stains
